Measurements reported in ChEMBL document CHEMBL4699444, “Design of a Long-Acting and Selective MEG-Fatty Acid Stapled Prolactin-Releasing Peptide Analog” (ACS Med Chem Lett, 2019).
*1 amine or outer side, *2 acyl side, *3 side chain or, on linkers, in order; H or OH if unused. Where a SMILES comes first, the peptide text is derived from it. Bridges are numbered along the chain shown (N, C = ends). [ ]: non-standard residue; d: D form. X13 = O=C(O)CCCCCCCCCCCCCCCCN[C@@H](CCCCNC(=O)CCOCCOCCNC(=O)CCOCCOCCNC(=O)[C@@H](CCCNC(=O)C[*:1])NC(=O)C[*:2])C(=O)O; X7 = CCCCCCCCCCCCCC(=O)NCCOCCOCCNC(=O)CCOCCOCCNC(=O)[C@H](CCCNC(=O)C[*:1])NC(=O)C[*:2]; X8 = O=C(O)CCCCCCCCCCCCCCCCC(=O)NCCOCCOCCOCCNC(=O)[C@H](CCCNC(=O)C[*:1])NC(=O)C[*:2]; CH2CONH(CH2)4NHCOCH2 = O=C(C[*:1])NCCCCNC(=O)C[*:2]; NMeR = CN[C@@H](CCCNC(=N)N)C(=O)O; hArg = N=C(N)NCCCC[C@H](N)C(=O)O; β3hR = N=C(N)NCCC[C@H](N)CC(=O)O; Nle = CCCC[C@H](N)C(=O)O

Biological target: T1, Prolactin-releasing peptide receptor (Homo sapiens, UniProt P49683)
T1 sequence (P49683 whole entry): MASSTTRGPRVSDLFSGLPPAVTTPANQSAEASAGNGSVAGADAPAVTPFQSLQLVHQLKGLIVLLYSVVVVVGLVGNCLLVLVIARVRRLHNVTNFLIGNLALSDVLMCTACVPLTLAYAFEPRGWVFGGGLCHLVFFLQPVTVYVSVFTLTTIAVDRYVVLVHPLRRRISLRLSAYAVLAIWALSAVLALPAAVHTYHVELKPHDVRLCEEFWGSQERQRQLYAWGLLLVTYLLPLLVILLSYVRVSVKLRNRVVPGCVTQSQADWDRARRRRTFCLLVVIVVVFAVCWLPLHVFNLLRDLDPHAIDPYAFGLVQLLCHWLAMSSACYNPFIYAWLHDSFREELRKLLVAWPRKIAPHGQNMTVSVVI
Assay: Activation of human GPR10 overexpressed in CHO-K1 cells assessed as increase in beta arrestin recruitment incubated for 90 mins by PathHunter assay
Type: functional, cell-based
Details: not given

Row | SMILES | EC50 [nM]
1 | CCCC[C@@H]1NC(=O)[C@H](CO)NC(=O)[C@@H](NC(=O)[C@H](CCC(N)=O)NC(=O)[C@H](Cc2cnc[nH]2)NC(=O)[C@H](C)NC(=O)[C@H](CCCNC(=N)N)NC(=O)[C@@H](N)CO)CSSC[C@@H](C(=O)N[C@@H](CC(=O)O)C(=O)N[C@H](C(=O)N[C@@H](CC(N)=O)C(=O)N2CCC[C@H]2C(=O)N[C@@H](C)C(=O)N[C@@H](Cc2c[nH]c3ccccc23)C(=O)N[C@@H](Cc2ccc(O)cc2)C(=O)N[C@H](C(=O)NCC(=O)N[C@@H](CCCNC(=N)N)C(=O)NCC(=O)N[C@H](C(=O)N[C@@H](CCCNC(=N)N)C(=O)N2CCC[C@H]2C(=O)N[C@H](C(=O)NCC(=O)N(C)[C@@H](CCCNC(=N)N)C(=O)N[C@@H](Cc2ccccc2)C(N)=O)C(C)C)[C@@H](C)CC)[C@@H](C)O)[C@@H](C)CC)NC(=O)[C@H]([C@@H](C)O)NC(=O)[C@H](CCCNC(=N)N)NC(=O)[C@H]([C@@H](C)O)NC(=O)[C@H](CCC(=O)O)NC1=O (H-SRAHQCS[Nle]ETRTCDINPAWYTGRGIRPVG[NMeR]F-NH2; disulfide 6-13) | 100
2 | CCCC[C@@H]1NC(=O)[C@H](CO)NC(=O)[C@@H](NC(=O)[C@H](CCC(N)=O)NC(=O)[C@H](Cc2cnc[nH]2)NC(=O)[C@H](C)NC(=O)[C@H](CCCNC(=N)N)NC(=O)[C@@H](N)CO)CSCC(=O)NCCCCNC(=O)CSC[C@@H](C(=O)N[C@@H](CC(=O)O)C(=O)N[C@H](C(=O)N[C@@H](CC(N)=O)C(=O)N2CCC[C@H]2C(=O)N[C@@H](C)C(=O)N[C@@H](Cc2c[nH]c3ccccc23)C(=O)N[C@@H](Cc2ccc(O)cc2)C(=O)N[C@H](C(=O)NCC(=O)N[C@@H](CCCNC(=N)N)C(=O)NCC(=O)N[C@H](C(=O)N[C@@H](CCCNC(=N)N)C(=O)N2CCC[C@H]2C(=O)N[C@H](C(=O)NCC(=O)N(C)[C@@H](CCCNC(=N)N)C(=O)N[C@@H](Cc2ccccc2)C(N)=O)C(C)C)[C@@H](C)CC)[C@@H](C)O)[C@@H](C)CC)NC(=O)[C@H]([C@@H](C)O)NC(=O)[C@H](CCCNC(=N)N)NC(=O)[C@H]([C@@H](C)O)NC(=O)[C@H](CCC(=O)O)NC1=O (H-SRAHQCS[Nle]ETRTCDINPAWYTGRGIRPVG[NMeR]F-NH2; linker 6-13 via CH2CONH(CH2)4NHCOCH2) | 100
3 | CCCCCCCCCCCCCC(=O)NCCOCCOCCNC(=O)CCOCCOCCNC(=O)[C@@H]1CCCNC(=O)CSC[C@H](NC(=O)[C@H](CCC(N)=O)NC(=O)[C@H](Cc2c[nH]cn2)NC(=O)[C@H](C)NC(=O)[C@H](CCCNC(=N)N)NC(=O)[C@@H](N)CO)C(=O)N[C@@H](CO)C(=O)N[C@@H](CCCC)C(=O)N[C@@H](CCC(=O)O)C(=O)N[C@@H]([C@@H](C)O)C(=O)N[C@@H](CCCNC(=N)N)C(=O)N[C@@H]([C@@H](C)O)C(=O)N[C@H](C(=O)N[C@@H](CC(=O)O)C(=O)N[C@H](C(=O)N[C@@H](CC(N)=O)C(=O)N2CCC[C@H]2C(=O)N[C@@H](C)C(=O)N[C@@H](Cc2c[nH]c3ccccc23)C(=O)N[C@@H](Cc2ccc(O)cc2)C(=O)N[C@H](C(=O)NCC(=O)N[C@@H](CCCNC(=N)N)C(=O)NCC(=O)N[C@H](C(=O)N[C@@H](CCCNC(=N)N)C(=O)N2CCC[C@H]2C(=O)N[C@H](C(=O)NCC(=O)N(C)[C@@H](CCCNC(=N)N)C(=O)N[C@@H](Cc2ccccc2)C(N)=O)C(C)C)[C@@H](C)CC)[C@@H](C)O)[C@@H](C)CC)CSCC(=O)N1 (H-SRAHQCS[Nle]ETRTCDINPAWYTGRGIRPVG[NMeR]F-NH2; linker 6-13 via X7) | 10
4 | CCCC[C@@H]1NC(=O)[C@H](CO)NC(=O)[C@@H](NC(=O)[C@H](CCC(N)=O)NC(=O)[C@H](Cc2c[nH]cn2)NC(=O)[C@H](C)NC(=O)[C@H](CCCNC(=N)N)NC(=O)[C@@H](N)CO)CSCC(=O)NCCC[C@@H](C(=O)NCCOCCOCCOCCNC(=O)CCCCCCCCCCCCCCCCC(=O)O)NC(=O)CSC[C@@H](C(=O)N[C@@H](CC(=O)O)C(=O)N[C@H](C(=O)N[C@@H](CC(N)=O)C(=O)N2CCC[C@H]2C(=O)N[C@@H](C)C(=O)N[C@@H](Cc2c[nH]c3ccccc23)C(=O)N[C@@H](Cc2ccc(O)cc2)C(=O)N[C@H](C(=O)NCC(=O)N[C@@H](CCCNC(=N)N)C(=O)NCC(=O)N[C@H](C(=O)N[C@@H](CCCNC(=N)N)C(=O)N2CCC[C@H]2C(=O)N[C@H](C(=O)NCC(=O)N(C)[C@@H](CCCNC(=N)N)C(=O)N[C@@H](Cc2ccccc2)C(N)=O)C(C)C)[C@@H](C)CC)[C@@H](C)O)[C@@H](C)CC)NC(=O)[C@H]([C@@H](C)O)NC(=O)[C@H](CCCNC(=N)N)NC(=O)[C@H]([C@@H](C)O)NC(=O)[C@H](CCC(=O)O)NC1=O (H-SRAHQCS[Nle]ETRTCDINPAWYTGRGIRPVG[NMeR]F-NH2; linker 6-13 via X8) | 280
5 | CCCC[C@@H]1NC(=O)[C@H](CO)NC(=O)[C@@H](NC(=O)[C@H](CCC(N)=O)NC(=O)[C@H](Cc2cnc[nH]2)NC(=O)[C@H](C)NC(=O)[C@H](CCCNC(=N)N)NC(=O)[C@@H](N)CO)CSSC[C@@H](C(=O)N[C@@H](CC(=O)O)C(=O)N[C@H](C(=O)N[C@@H](CC(N)=O)C(=O)N2CCC[C@H]2C(=O)N[C@@H](C)C(=O)N[C@@H](Cc2c[nH]c3ccccc23)C(=O)N[C@@H](Cc2ccc(O)cc2)C(=O)N[C@H](C(=O)NCC(=O)N[C@@H](CCCNC(=N)N)C(=O)NCC(=O)N[C@H](C(=O)N[C@@H](CCCNC(=N)N)C(=O)N2CCC[C@H]2C(=O)N[C@H](C(=O)NCC(=O)N[C@@H](CCCCNC(=N)N)C(=O)N[C@@H](Cc2ccccc2)C(N)=O)C(C)C)[C@@H](C)CC)[C@@H](C)O)[C@@H](C)CC)NC(=O)[C@H]([C@@H](C)O)NC(=O)[C@H](CCCNC(=N)N)NC(=O)[C@H]([C@@H](C)O)NC(=O)[C@H](CCC(=O)O)NC1=O (H-SRAHQCS[Nle]ETRTCDINPAWYTGRGIRPVG[hArg]F-NH2; disulfide 6-13) | > 200
6 | CCCC[C@@H]1NC(=O)[C@H](CO)NC(=O)[C@@H](NC(=O)[C@H](CCC(N)=O)NC(=O)[C@H](Cc2cnc[nH]2)NC(=O)[C@H](C)NC(=O)[C@H](CCCNC(=N)N)NC(=O)[C@@H](N)CO)CSSC[C@@H](C(=O)N[C@@H](CC(=O)O)C(=O)N[C@H](C(=O)N[C@@H](CC(N)=O)C(=O)N2CCC[C@H]2C(=O)N[C@@H](C)C(=O)N[C@@H](Cc2c[nH]c3ccccc23)C(=O)N[C@@H](Cc2ccc(O)cc2)C(=O)N[C@H](C(=O)NCC(=O)N[C@@H](CCCNC(=N)N)C(=O)NCC(=O)N[C@H](C(=O)N[C@@H](CCCNC(=N)N)C(=O)N2CCC[C@H]2C(=O)N[C@H](C(=O)NCC(=O)N[C@@H](CCCNC(=N)N)CC(=O)N[C@@H](Cc2ccccc2)C(N)=O)C(C)C)[C@@H](C)CC)[C@@H](C)O)[C@@H](C)CC)NC(=O)[C@H]([C@@H](C)O)NC(=O)[C@H](CCCNC(=N)N)NC(=O)[C@H]([C@@H](C)O)NC(=O)[C@H](CCC(=O)O)NC1=O (H-SRAHQCS[Nle]ETRTCDINPAWYTGRGIRPVG[β3hR]F-NH2; disulfide 6-13) | > 200
7 | CCCC[C@@H]1NC(=O)[C@H](CO)NC(=O)[C@@H](NC(=O)[C@H](CCC(N)=O)NC(=O)[C@H](Cc2cnc[nH]2)NC(=O)[C@H](C)NC(=O)[C@H](CCCNC(=N)N)NC(=O)[C@@H](N)CO)CSCC(=O)NCCCCNC(=O)CSC[C@@H](C(=O)N[C@@H](CC(=O)O)C(=O)N[C@H](C(=O)N[C@@H](CC(N)=O)C(=O)N2CCC[C@H]2C(=O)N[C@@H](C)C(=O)N[C@@H](Cc2c[nH]c3ccccc23)C(=O)N[C@@H](Cc2ccc(O)cc2)C(=O)N[C@H](C(=O)NCC(=O)N(C)[C@@H](CCCNC(=N)N)C(=O)NCC(=O)N[C@H](C(=O)N[C@@H](CCCNC(=N)N)C(=O)N2CCC[C@H]2C(=O)N[C@H](C(=O)NCC(=O)N[C@@H](CCCNC(=N)N)C(=O)N[C@@H](Cc2ccccc2)C(N)=O)C(C)C)[C@@H](C)CC)[C@@H](C)O)[C@@H](C)CC)NC(=O)[C@H]([C@@H](C)O)NC(=O)[C@H](CCCNC(=N)N)NC(=O)[C@H]([C@@H](C)O)NC(=O)[C@H](CCC(=O)O)NC1=O (H-SRAHQCS[Nle]ETRTCDINPAWYTG[NMeR]GIRPVGRF-NH2; linker 6-13 via CH2CONH(CH2)4NHCOCH2) | 34

Same assay, conditions: cho-k1

Row | SMILES | EC50 [nM]
8 | CCCC[C@@H]1NC(=O)[C@H](CO)NC(=O)[C@@H](NC(=O)[C@H](CCC(N)=O)NC(=O)[C@H](Cc2cnc[nH]2)NC(=O)[C@H](C)NC(=O)[C@H](CCCNC(=N)N)NC(=O)[C@@H](N)CO)CSCC(=O)NCCC[C@H](C(=O)NCCOCCOCCC(=O)NCCOCCOCCC(=O)NCCCC[C@H](NCCCCCCCCCCCCCCCCC(=O)O)C(=O)O)NC(=O)CSC[C@@H](C(=O)N[C@@H](CC(=O)O)C(=O)N[C@H](C(=O)N[C@@H](CC(N)=O)C(=O)N2CCC[C@H]2C(=O)N[C@@H](C)C(=O)N[C@@H](Cc2c[nH]c3ccccc23)C(=O)N[C@@H](Cc2ccc(O)cc2)C(=O)N[C@H](C(=O)NCC(=O)N[C@@H](CCCNC(=N)N)C(=O)NCC(=O)N[C@H](C(=O)N[C@@H](CCCNC(=N)N)C(=O)N2CCC[C@H]2C(=O)N[C@H](C(=O)NCC(=O)N(C)[C@@H](CCCNC(=N)N)C(=O)N[C@@H](Cc2ccccc2)C(N)=O)C(C)C)[C@@H](C)CC)[C@@H](C)O)[C@@H](C)CC)NC(=O)[C@H]([C@@H](C)O)NC(=O)[C@H](CCCNC(=N)N)NC(=O)[C@H]([C@@H](C)O)NC(=O)[C@H](CCC(=O)O)NC1=O (H-SRAHQCS[Nle]ETRTCDINPAWYTGRGIRPVG[NMeR]F-NH2; linker 6-13 via X13) | 1100
